tested on: CAL51 cell proliferation; assay: Cell Titer Glo Proliferation Assay (CAL51); format: cell-based, human; conditions: Homo sapiens, CAL-51; CAL51 cell proliferation, 72 h, Cell Titer Glo luminescence; read-out: Act. Level
Outline: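 Viability is measured by CellTiter-Glo luminescence after 72 h of compound exposure. CAL51 cells were seeded in growth medium with 10% FBS and 2 mM glutamine, cultured overnight, then dosed with compound dilutions, vehicle held at 0.2% DMSO.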

**Q.** How did the IC50 turn out when `Cc1cc(C(=O)N(C)C)ccc1Nc1nc(OC2CCOCC2)c2c(-c3cncnc3)c[nH]c2n1` [Example 107, N,N,3-trimethyl-4-(5-(pyrimidin-5-yl)-4-(tetrahydro-2H-pyran-4-yloxy)-7H-pyrrolo[2,3-d]pyrimidin-2-ylamino)benzamide] was run?
**A.** Its IC50 is 100 to 400 nM.

**Q.** `CCOc1ccc(-c2c[nH]c3nc(Nc4ccc(C(=O)N(C)C)cc4C)nc(OC4CCOCC4)c23)cn1` [Example 109, 4-(5-(6-ethoxypyridin-3-yl)-4-(tetrahydro-2H-pyran-4-yloxy)-7H-pyrrolo[2,3-d]pyrimidin-2-ylamino)-N,N,3-trimethylbenzamide] was tested. Which IC50 did it give?
**A.** The IC50 was less than 100 nM.

**Q.** Which IC50 does the source give for `CNC(=O)c1ccc(Nc2nc(OC3CCCC3)c3c(-c4ccc5nc(N)[nH]c5c4)c[nH]c3n2)c(OC)c1` [Example 110, 4-(5-(2-amino-1H-benzo[d]imidazol-6-yl)-4-(cyclopentyloxy)-7H-pyrrolo[2,3-d]pyrimidin-2-ylamino)-3-methoxy-N-methylbenzamide] here?
**A.** The IC50 was less than 100 nM.

**Q.** `Cc1cc(C(=O)N(C)C)ccc1Nc1nc(OC2CCOCC2)c2c(-c3nnco3)c[nH]c2n1` [Example 111, 4-(5-(1,3,4-oxadiazol-2-yl)-4-(tetrahydro-2H-pyran-4-yloxy)-7H-pyrrolo[2,3-d]pyrimidin-2-ylamino)-N,N,3-trimethylbenzamide] was tested. Which IC50 did it give?
**A.** The IC50 was 1000 to 10000 nM.

**Q.** With `Cc1cc(C(=O)N(C)C)ccc1Nc1nc(OC2CCOCC2)c2c(-c3cnn(C)c3)c[nH]c2n1` [Example 112, N,N,3-trimethyl-4-(5-(1-methyl-1H-pyrazol-4-yl)-4-(tetrahydro-2H-pyran-4-yloxy)-7H-pyrrolo[2,3-d]pyrimidin-2-ylamino)benzamide] as the compound, how does the IC50 read?
**A.** Its IC50 is less than 100 nM.

**Q.** How did the IC50 turn out when `Cc1cc(C(=O)N(C)C)ccc1Nc1nc(OC2CCOCC2)c2c(-c3ccn(C)n3)c[nH]c2n1` [Example 113, N,N,3-trimethyl-4-(5-(1-methyl-1H-pyrazol-3-yl)-4-(tetrahydro-2H-pyran-4-yloxy)-7H-pyrrolo[2,3-d]pyrimidin-2-ylamino)benzamide] was run?
**A.** Its IC50 is 400 to 1000 nM.

**Q.** How did the IC50 turn out when `CNC(=O)c1ccc(Nc2nc(OC3CCOCC3)c3c(-c4ccncc4)c[nH]c3n2)c(OC)c1` [Example 114, 3-methoxy-N-methyl-4-(5-(pyridin-4-yl)-4-(tetrahydro-2H-pyran-4-yloxy)-7H-pyrrolo[2,3-d]pyrimidin-2-ylamino)benzamide] was run?
**A.** The IC50 was less than 100 nM.

**Q.** For `Cc1cc(C(=O)N(C)C)ccc1Nc1nc(OC2CCOCC2)c2c(-c3ncco3)c[nH]c2n1` [Example 115, N,N,3-trimethyl-4-(5-(oxazol-2-yl)-4-(tetrahydro-2H-pyran-4-yloxy)-7H-pyrrolo[2,3-d]pyrimidin-2-ylamino)benzamide], which IC50 is on record?
**A.** Its IC50 is 400 to 1000 nM.

**Q.** For `Cc1cc(C(=O)N(C)C)ccc1Nc1nc(OC2CCOCC2)c2c(-c3ccc4nc(N)[nH]c4c3)c[nH]c2n1` [Example 116, 4-(5-(2-amino-1H-benzo[d]imidazol-6-yl)-4-(tetrahydro-2H-pyran-4-yloxy)-7H-pyrrolo[2,3-d]pyrimidin-2-ylamino)-N,N,3-trimethylbenzamide], which IC50 is on record?
**A.** The IC50 was less than 100 nM.

**Q.** How did the IC50 turn out when `Cc1cc(-c2c[nH]c3nc(Nc4ccc(C(=O)N(C)C)cc4C)nc(OC4CCOCC4)c23)ccn1` [Example 117, N,N,3-trimethyl-4-(5-(2-methyl-pyridin-4-yl)-4-(tetrahydro-2H-pyran-4-yloxy)-7H-pyrrolo[2,3-d]pyrimidin-2-ylamino)benzamide] was run?
**A.** Its IC50 is less than 100 nM.

**Q.** With `CNC(=O)c1ccc(Nc2nc(OC)c3c(-c4ccc(OC)nc4)c[nH]c3n2)c(OC)c1` [Example 118, 3-methoxy-4-(4-methoxy-5-(6-methoxypyridin-3-yl)-7H-pyrrolo [2,3-d]pyrimidin-2-ylamino)-N-methylbenzamide] as the compound, how does the IC50 read?
**A.** Its IC50 is 100 to 400 nM.

**Q.** With `CNC(=O)c1ccc(Nc2nc(OC3CCOCC3)c3c(-c4ccc(OC)nc4)c[nH]c3n2)c(OC)c1` [Example 119, 3-methoxy-4-(5-(6-methoxypyridin-3-yl)-4-(tetrahydro-2H-pyran-4-yloxy)-7H-pyrrolo[2,3-d]pyrimidin-2-ylamino)-N-methylbenzamide] as the compound, how does the IC50 read?
**A.** Its IC50 is less than 100 nM.

**Q.** Which IC50 does the source give for `COCCNC(=O)c1ccc(Nc2nc(OC3CCOCC3)c3c(-c4ccc5nc(C)oc5c4)c[nH]c3n2)c(OC)c1` [Example 120, 3-methoxy-N-(2-methoxyethyl)-4-(5-(2-methylbenzo[d]oxazol-6-yl)-4-(tetrahydro-2H-pyran-4-yloxy)-7H-pyrrolo[2,3-d]pyrimidin-2-ylamino)benzamide] here?
**A.** The IC50 was less than 100 nM.

**Q.** With `Cc1nc2ccc(-c3c[nH]c4nc(Nc5ccc(C(=O)N(C)C)cc5C)nc(O[C@@H]5CCCOC5)c34)cc2o1` [Example 121, (R)-N,N,3-trimethyl-4-(5-(2-methylbenzo[d]oxazol-6-yl)-4-(tetrahydro-2H-pyran-3-yloxy)-7H-pyrrolo[2,3-d]pyrimidin-2-ylamino)benzamide] as the compound, how does the IC50 read?
**A.** The IC50 was 100 to 400 nM.

**Q.** How did the IC50 turn out when `CNC(=O)c1ccc(Nc2nc(OC3CCOCC3)c3c(-c4cn[nH]c4)c[nH]c3n2)c(OC)c1` [Example 122, 4-(5-(1H-pyrazol-4-yl)-4-(tetrahydro-2H-pyran-4-yloxy)-7H-pyrrolo[2,3-d]pyrimidin-2-ylamino)-3-methoxy-N-methylbenzamide] was run?
**A.** Its IC50 is less than 100 nM.

**Q.** `CNC(=O)c1ccc(-c2c[nH]c3nc(Nc4ccc(C(=O)NC)cc4OC)nc(OC4CCOCC4)c23)cc1` [Example 123, 3-methoxy-N-methyl-4-(5-(4-(methylcarbamoyl)phenyl)-4-(tetrahydro-2H-pyran-4-yloxy)-7H-pyrrolo[2,3-d]pyrimidin-2-ylamino) benzamide] was tested. Which IC50 did it give?
**A.** Its IC50 is less than 100 nM.

**Q.** Which IC50 does the source give for `CNC(=O)c1ccc(-c2c[nH]c3nc(Nc4ccc(C(=O)NC)cc4OC)nc(OC)c23)cc1` [Example 124, 3-methoxy-4-(4-methoxy-5-(4-(methylcarbamoyl)phenyl)-7H-pyrrolo[2,3-d]pyrimidin-2-ylamino)-N-methylbenzamide] here?
**A.** Its IC50 is 100 to 400 nM.

**Q.** `CNC(=O)c1ccc(Nc2nc(OC(C)C)c3c(-c4ccc5nc(C)oc5c4)c[nH]c3n2)c(OC)c1` [Example 125, 4-(4-isopropoxy-5-(2-methylbenzo[d]oxazol-6-yl)-7H-pyrrolo[2,3-d]pyrimidin-2-ylamino)-3-methoxy-N-methylbenzamide] was tested. Which IC50 did it give?
**A.** Its IC50 is less than 100 nM.

**Q.** `CNC(=O)c1ccc(Nc2nc(OC3CCOCC3)c3c(-c4ccc(N(C)C)nc4)c[nH]c3n2)c(OC)c1` [Example 126, 4-(5-(6-(dimethylamino)pyridin-3-yl)-4-(tetrahydro-2H-pyran-4-yloxy)-7H-pyrrolo[2,3-d]pyrimidin-2-ylamino)-3-methoxy-N-methylbenzamide] was tested. Which IC50 did it give?
**A.** The IC50 was 400 to 1000 nM.

**Q.** For `COc1cc(C(=O)NCCN(C)C)ccc1Nc1nc(OC2CCOCC2)c2c(-c3ccc4nc(C)oc4c3)c[nH]c2n1` [Example 127, N-(2-(dimethylamino)ethyl)-3-methoxy-4-(5-(2-methylbenzo[d]oxazol-6-yl)-4-(tetrahydro-2H-pyran-4-yloxy)-7H-pyrrolo[2,3-d]pyrimidin-2-ylamino)benzamide], which IC50 is on record?
**A.** Its IC50 is less than 100 nM.

**Q.** How did the IC50 turn out when `Cc1nc2ccc(-c3c[nH]c4nc(Nc5ccc(C(=O)N(C)C)cc5C)nc(OC5CCOCC5)c34)cc2[nH]1` [Example 128, N,N,3-trimethyl-4-(5-(2-methyl-1H-benzo[d]imidazol-6-yl)-4-(tetrahydro-2H-pyran-4-yloxy)-7H-pyrrolo[2,3-d]pyrimidin-2-ylamino)benzamide] was run?
**A.** The IC50 was less than 100 nM.

**Q.** `CNC(=O)c1ccc(Nc2nc(OC)c3c(-c4cn[nH]c4)c[nH]c3n2)c(OC)c1` [Example 129, 3-methoxy-4-(4-methoxy-5-(1H-pyrazol-4-yl)-7H-pyrrolo[2,3-d]pyrimidin-2-ylamino)-N-methylbenzamide] was tested. Which IC50 did it give?
**A.** The IC50 was 100 to 400 nM.

**Q.** `CNCCNC(=O)c1ccc(Nc2nc(OC3CCOCC3)c3c(-c4ccc5nc(C)oc5c4)c[nH]c3n2)c(OC)c1` [Example 130, 3-methoxy-N-(2-(methylamino)ethyl)-4-(5-(2-methylbenzo[d]oxazol-6-yl)-4-(tetrahydro-2H-pyran-4-yloxy)-7H-pyrrolo [2,3-d]pyrimidin-2-ylamino)benzamide] was tested. Which IC50 did it give?
**A.** The IC50 was 100 to 400 nM.

**Q.** For `CNC(=O)c1ccc(Nc2nc(OC3CCOCC3)c3c(-c4ccnc(N(C)C)c4)c[nH]c3n2)c(OC)c1` [Example 131, 4-(5-(2-(dimethylamino)pyridin-4-yl)-4-(tetrahydro-2H-pyran-4-yloxy)-7H-pyrrolo[2,3-d]pyrimidin-2-ylamino)-3-methoxy-N-methylbenzamide], which IC50 is on record?
**A.** The IC50 was less than 100 nM.

**Q.** Which IC50 does the source give for `CNC(=O)c1ccc(Nc2nc(O[C@H]3CCOC3)c3c(-c4ccc5nc(C)oc5c4)c[nH]c3n2)c(C)c1` [Example 133, (S)-N,3-dimethyl-4-(5-(2-methylbenzo[d]oxazol-6-yl)-4-(tetrahydrofuran-3-yloxy)-7H-pyrrolo[2,3-d]pyrimidin-2-ylamino)benzamide] here?
**A.** Its IC50 is less than 100 nM.

**Q.** How did the IC50 turn out when `CNC(=O)c1ccc(Nc2nc(OC3CCOCC3)c3c(-c4ccc5nc(C)oc5c4C)c[nH]c3n2)c(OC)c1` [Example 135, 4-(5-(2,7-dimethylbenzo[d]oxazol-6-yl)-4-(tetrahydro-2H-pyran-4-yloxy)-7H-pyrrolo[2,3-d]pyrimidin-2-ylamino)-3-methoxy-N-methylbenzamide] was run?
**A.** The IC50 was 1000 to 10000 nM.

**Q.** Which IC50 does the source give for `CNC(=O)c1ccc(Nc2nc(OC3CCOCC3)c3c(-c4cc5oc(C)nc5cc4C)c[nH]c3n2)c(OC)c1` [Example 136, 4-(5-(2,5-dimethylbenzo[d]oxazol-6-yl)-4-(tetrahydro-2H-pyran-4-yloxy)-7H-pyrrolo[2,3-d]pyrimidin-2-ylamino)-3-methoxy-N-methylbenzamide] here?
**A.** Its IC50 is 1000 to 10000 nM.

**Q.** `CNC(=O)c1ccc(Nc2nc(O[C@H]3CC[C@H](O)CC3)c3c(-c4ccc5nc(C)oc5c4)c[nH]c3n2)c(OC)c1` [Example 137, 4-(4-((1r,4r)-4-hydroxycyclo-hexyloxy)-5-(2-methylbenzo[d]oxazol-6-yl)-7H-pyrrolo[2,3-d]pyrimidin-2-ylamino)-3-methoxy-N-methylbenzamide] was tested. Which IC50 did it give?
**A.** Its IC50 is less than 100 nM.

**Q.** Which IC50 does the source give for `CNCCOc1nc(Nc2ccc(C(=O)NC)cc2OC)nc2[nH]cc(-c3ccc4nc(C)oc4c3)c12` [Example 138, 3-methoxy-N-methyl-4-(4-(2-(methylamino)ethoxy)-5-(2-methylbenzo[d]oxazol-6-yl)-7H-pyrrolo[2,3-d]pyrimidin-2-ylamino)benzamide] here?
**A.** Its IC50 is 1000 to 10000 nM.

**Q.** With `CNC(=O)c1ccc(Nc2nc(OCCOC)c3c(-c4ccc5nc(C)oc5c4)c[nH]c3n2)c(OC)c1` [Example 139, 3-methoxy-4-(4-(2-methoxyethoxy)-5-(2-methylbenzo[d]oxazol-6-yl)-7H-pyrrolo[2,3-d]pyrimidin-2-ylamino)-N-methylbenzamide] as the compound, how does the IC50 read?
**A.** Its IC50 is less than 100 nM.

Reference: patent publication US9346812B2, “Substituted pyrrolopyrimidine compounds, compositions thereof, and methods of treatment therewith” (Signal Pharmaceutical LLC, priority 2013, dated 2016)
